Laboratory results reported in article PMC9080233, “Synthesis and biological evaluation of novel quinolone derivatives dual targeting histone deacetylase and tubulin polymerization as antiproliferative agents” (RSC Advances, 2018).
Where two headings read alike, the source gives them in different places.

Assays:
[1] = target: T1, human recombinant HDAC1 (Homo sapiens, UniProt Q13547); assay: HDAC activity assay (fluorogenic HDAC assay kit), HDAC1; assay type: biochemical; conditions: for IC50: human recombinant HDAC1, 37 °C, 30 min
T1 construct: purchased BPS Bioscience, CA
T1 sequence (Q13547 whole entry): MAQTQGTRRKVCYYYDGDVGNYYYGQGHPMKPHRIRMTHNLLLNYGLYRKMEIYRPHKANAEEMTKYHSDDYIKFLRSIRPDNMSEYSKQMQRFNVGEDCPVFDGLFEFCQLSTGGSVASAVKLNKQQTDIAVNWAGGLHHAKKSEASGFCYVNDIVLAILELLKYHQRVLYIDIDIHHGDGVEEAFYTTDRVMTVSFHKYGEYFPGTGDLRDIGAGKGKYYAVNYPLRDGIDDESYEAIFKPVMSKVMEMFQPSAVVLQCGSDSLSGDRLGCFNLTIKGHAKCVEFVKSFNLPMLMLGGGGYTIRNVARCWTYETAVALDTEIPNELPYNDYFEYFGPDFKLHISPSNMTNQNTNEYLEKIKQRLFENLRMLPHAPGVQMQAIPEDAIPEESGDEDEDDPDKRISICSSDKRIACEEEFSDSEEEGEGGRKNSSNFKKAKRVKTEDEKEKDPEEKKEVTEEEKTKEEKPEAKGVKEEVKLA
Protocol: (§1) HDAC activity was measured using fluorogenic HDACs assay kit (BPS Bioscience, CA) according to the manufacturer's protocol. […] Fluorescence values were measured at an excitation of 350 nm and an emission of 440 nm using SpectraMax M2 microplate reader. IC50 values were calculated using Origin software. IC50 values were determined using nonlinear regression analysis.

[2] = target: T2, human recombinant HDAC2 (Homo sapiens, UniProt Q92769); assay: HDAC activity assay (fluorogenic HDAC assay kit), HDAC2; assay type: biochemical; conditions: for IC50: human recombinant HDAC2, 37 °C, 30 min
T2 construct: purchased BPS Bioscience, CA
T2 sequence (Q92769 whole entry): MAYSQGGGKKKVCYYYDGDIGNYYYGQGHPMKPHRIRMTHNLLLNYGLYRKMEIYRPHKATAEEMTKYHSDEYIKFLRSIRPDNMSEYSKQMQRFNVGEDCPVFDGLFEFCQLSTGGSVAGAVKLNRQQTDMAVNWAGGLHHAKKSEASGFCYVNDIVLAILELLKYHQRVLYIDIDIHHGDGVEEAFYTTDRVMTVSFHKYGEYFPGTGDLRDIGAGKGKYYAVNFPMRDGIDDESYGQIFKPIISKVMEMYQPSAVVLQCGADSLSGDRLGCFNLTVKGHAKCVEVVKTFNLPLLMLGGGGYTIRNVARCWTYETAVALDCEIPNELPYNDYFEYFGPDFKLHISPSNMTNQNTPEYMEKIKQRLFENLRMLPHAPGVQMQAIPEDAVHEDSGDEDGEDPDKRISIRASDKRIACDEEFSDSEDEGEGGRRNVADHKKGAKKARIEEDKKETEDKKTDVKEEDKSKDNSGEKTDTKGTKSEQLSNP
Protocol: as §1

[3] = target: T3, human recombinant HDAC6 (Homo sapiens, UniProt Q9UBN7); assay: HDAC activity assay (fluorogenic HDAC assay kit), HDAC6; assay type: biochemical; conditions: for IC50: human recombinant HDAC6, 37 °C, 30 min; for Selectivity index HDAC6/1: ratio of IC50 HDAC1 to IC50 HDAC6; for Selectivity index HDAC6/2: ratio of IC50 HDAC2 to IC50 HDAC6;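 for all read-outs here: underlying HDAC activity read as fluorescence, excitation 350 nm and emission 440 nm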
T3 construct: purchased BPS Bioscience, CA
T3 sequence (Q9UBN7 1-1215): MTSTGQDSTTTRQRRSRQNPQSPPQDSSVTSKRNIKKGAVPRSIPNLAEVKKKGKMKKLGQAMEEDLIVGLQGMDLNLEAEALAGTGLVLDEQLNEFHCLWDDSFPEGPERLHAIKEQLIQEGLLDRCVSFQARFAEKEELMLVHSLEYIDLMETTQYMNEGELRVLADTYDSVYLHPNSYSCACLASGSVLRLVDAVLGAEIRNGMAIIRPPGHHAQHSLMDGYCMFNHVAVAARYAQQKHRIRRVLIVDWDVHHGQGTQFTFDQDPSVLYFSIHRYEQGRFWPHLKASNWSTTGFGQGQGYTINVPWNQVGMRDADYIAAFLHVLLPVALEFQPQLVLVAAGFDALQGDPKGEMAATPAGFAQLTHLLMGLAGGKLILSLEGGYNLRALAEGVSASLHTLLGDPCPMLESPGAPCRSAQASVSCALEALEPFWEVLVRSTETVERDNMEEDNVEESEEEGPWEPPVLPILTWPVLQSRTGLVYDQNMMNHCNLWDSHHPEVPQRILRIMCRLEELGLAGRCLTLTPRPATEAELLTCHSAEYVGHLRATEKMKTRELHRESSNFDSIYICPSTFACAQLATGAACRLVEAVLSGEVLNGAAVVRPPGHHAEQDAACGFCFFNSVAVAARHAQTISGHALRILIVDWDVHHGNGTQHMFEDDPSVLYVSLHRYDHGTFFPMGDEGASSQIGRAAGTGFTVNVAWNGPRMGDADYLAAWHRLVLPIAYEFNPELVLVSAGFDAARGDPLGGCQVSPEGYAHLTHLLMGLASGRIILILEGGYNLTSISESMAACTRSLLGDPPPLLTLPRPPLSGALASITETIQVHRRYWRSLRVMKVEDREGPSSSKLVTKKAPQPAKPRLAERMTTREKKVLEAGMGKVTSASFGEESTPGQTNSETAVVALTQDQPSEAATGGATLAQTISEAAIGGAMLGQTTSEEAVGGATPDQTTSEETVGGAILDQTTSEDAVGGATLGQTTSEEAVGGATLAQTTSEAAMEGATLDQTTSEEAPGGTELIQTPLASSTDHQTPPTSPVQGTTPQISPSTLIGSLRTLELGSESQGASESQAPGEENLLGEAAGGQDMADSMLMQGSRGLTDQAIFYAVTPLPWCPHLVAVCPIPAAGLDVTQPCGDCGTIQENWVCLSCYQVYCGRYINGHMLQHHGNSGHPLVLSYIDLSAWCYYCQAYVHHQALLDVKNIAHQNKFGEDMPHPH
Protocol: as §1

[4] = test system: human lung adenocarcinoma cells A549; assay: Antiproliferative activity, CCK-8 assay, A549; assay type: cell-based; conditions: CCK-8, 72 hours, mean ± SD
Protocol: (§2) Antitumor activities in vitro of synthetic compounds were measured using CCK-8 Assay Kit (BPS Bioscience, CA) according to the manufacturer's protocol. […] Control cells were treated with serum free medium. Then CCK-8 solution was added to each well to determine cell viability. The IC50 values were calculated according to the dose-dependent curves (Origin software). IC50 values were determined using nonlinear regression analysis.

[5] = test system: liver cancer cells HepG2; assay: Antiproliferative activity, CCK-8 assay, HepG2; assay type: cell-based; conditions: Homo sapiens, CCK-8, 72 hours, mean ± SD
Protocol: as §2

[6] = test system: breast cancer cells MCF-7; assay: Antiproliferative activity, CCK-8 assay, MCF-7; assay type: cell-based; conditions: Homo sapiens, MCF7; CCK-8, 72 hours; mean ± SD
Protocol: as §2

[7] = test system: prostate cancer cells PC-3; assay: Antiproliferative activity, CCK-8 assay, PC-3; assay type: cell-based; conditions: Homo sapiens; CCK-8, 72 hours; mean ± SD
Protocol: as §2

[8] = test system: human cervical carcinoma cells HeLa; assay: Antiproliferative activity, CCK-8 assay, HeLa; assay type: cell-based; conditions: read-out: IC50 HeLa
Protocol: Antitumor activities in vitro of synthetic compounds were measured using CCK-8 Assay Kit (BPS Bioscience, CA) according to the manufacturer's protocol. Cells were plated into 96-well plates with appropriate test compounds for 72 hours. Control cells were treated with serum free medium. Then CCK-8 solution was added to each well to determine cell viability. The IC50 values were calculated according to the dose-dependent curves (Origin software). IC50 values were determined using nonlinear regression analysis.

[9] = test system: healthy MCF-10A cells; assay: Toxicity to healthy cells, CCK-8 assay, MCF-10A; assay type: cell-based; conditions: for IC50: Homo sapiens, MCF-10A, healthy cells, CCK-8, 72 hours, >100 = not determinable up to highest concentrations tested
Protocol: as §2

[10] = amide group of 9c replaced with ester group

| Compound | IC50 [1] [µM] | IC50 [2] [µM] | IC50 [3] [µM] | Selectivity index HDAC6/1 [3] | Selectivity index HDAC6/2 [3] | IC50 [4] [µM] | IC50 [5] [µM] | IC50 [6] [µM] | IC50 [7] [µM] | IC50 ([8]; CCK-8, 72 hours, mean ± SD) [µM] | IC50 [9] [µM] | melting point [°C] | fold reduced potency anti-HDAC1 relative to 9c [1, 10] | fold reduced potency anti-HDAC2 relative to 9c [2, 10] | fold reduced potency anti-HDAC6 relative to 9c [3, 10] | IC50 ([8]; 72 h) [µM] | toxicity to healthy MCF-10A cells ([9]; in words) | toxicity to healthy VERO cells ([9]; in words, conclusions) |
| --- | --- | --- | --- | --- | --- | --- | --- | --- | --- | --- | --- | --- | --- | --- | --- | --- | --- | --- |
| C[C@H]1COc2c(N3CCN(C)CC3)c(F)cc3c(=O)c(C(=O)OCc4cn(CCCCCC(=O)O)nn4)cn1c23 [Compound 6a, (S)-6-(4-(((9-fluoro-3-methyl-10-(4-methylpiperazin-1-yl)-7-oxo-3,7-dihydro-2H-[1,4]oxazino[2,3,4-ij]quinoline-6-carbonyl)oxy)methyl)-1H-1,2,3-triazol-1-yl)hexanoic acid] | 8.2 ± 1.08 | 10.4 ± 1.87 | 2.1 ± 0.68 | 3.9 | 4.9 | 14.2 ± 1.28 | 13.4 ± 1.36 | 10.3 ± 1.12 | 16.5 ± 1.63 | 12.3 ± 1.16 | > 100 | 175 to 178 | – | – | – | – | – | – |
| C[C@H]1COc2c(N3CCN(C)CC3)c(F)cc3c(=O)c(C(=O)OCc4cn(CCCCCCC(=O)O)nn4)cn1c23 [Compound 6b, (S)-7-(4-(((9-fluoro-3-methyl-10-(4-methylpiperazin-1-yl)-7-oxo-3,7-dihydro-2H-[1,4]oxazino[2,3,4-ij]quinoline-6-carbonyl)oxy)methyl)-1H-1,2,3-triazol-1-yl)heptanoic acid] | 5.7 ± 0.71 | 6.2 ± 0.92 | 1.4 ± 0.35 | 4.1 | 4.4 | 10.7 ± 1.08 | 10.5 ± 1.17 | 8.9 ± 0.54 | 12.9 ± 1.25 | 9.7 ± 0.83 | > 100 | 183 to 185 | – | – | – | – | – | – |
| C[C@H]1COc2c(N3CCN(C)CC3)c(F)cc3c(=O)c(C(=O)OCc4cn(CCCCCCCC(=O)O)nn4)cn1c23 [Compound 6c, (S)-8-(4-(((9-fluoro-3-methyl-10-(4-methylpiperazin-1-yl)-7-oxo-3,7-dihydro-2H-[1,4]oxazino[2,3,4-ij]quinoline-6-carbonyl)oxy)methyl)-1H-1,2,3-triazol-1-yl)octanoic acid] | 6.9 ± 0.83 | 7.9 ± 0.76 | 4.7 ± 0.51 | 1.5 | 1.7 | 13.6 ± 1.16 | 12.7 ± 1.09 | 10.5 ± 1.22 | 15.8 ± 1.43 | 14.6 ± 1.08 | > 100 | 196 to 199 | – | – | – | – | – | – |
| C[C@H]1COc2c(N3CCN(C)CC3)c(F)cc3c(=O)c(C(=O)NCc4cn(CCCCCC(=O)O)nn4)cn1c23 [Compound 7a, (S)-6-(4-((9-fluoro-3-methyl-10-(4-methylpiperazin-1-yl)-7-oxo-3,7-dihydro-2H-[1,4]oxazino[2,3,4-ij]quinoline-6-carboxamido)methyl)-1H-1,2,3-triazol-1-yl)hexanoic acid] | 4.6 ± 0.52 | 7.3 ± 0.93 | 1.9 ± 0.47 | 2.4 | 3.8 | 12.8 ± 1.33 | 14.8 ± 1.27 | 9.7 ± 1.04 | 15.8 ± 1.48 | 13.5 ± 1.31 | > 100 | 179 to 182 | – | – | – | – | – | – |
| C[C@H]1COc2c(N3CCN(C)CC3)c(F)cc3c(=O)c(C(=O)OCc4cn(CCCCCC(=O)NO)nn4)cn1c23 [Compound 8a, (S)-(1-(6-(hydroxyamino)-6-oxohexyl)-1H-1,2,3-triazol-4-yl)methyl-9-fluoro-3-methyl-10-(4-methylpiperazin-1-yl)-7-oxo-3,7-dihydro-2H-[1,4]oxazino[2,3,4-ij]quinoline-6-carboxylate] | 0.075 ± 0.031 | 0.134 ± 0.049 | 0.043 ± 0.053 | 1.7 | 3.1 | 8.9 ± 0.72 | 9.8 ± 0.87 | 3.5 ± 0.51 | 12.8 ± 1.42 | 7.7 ± 0.64 | > 100 | – | – | – | – | – | – | – |
| C[C@H]1COc2c(N3CCN(C)CC3)c(F)cc3c(=O)c(C(=O)OCc4cn(CCCCCCCC(=O)NO)nn4)cn1c23 [Compound 8c, (S)-(1-(8-(hydroxyamino)-8-oxooctyl)-1H-1,2,3-triazol-4-yl)methyl-9-fluoro-3-methyl-10-(4-methylpiperazin-1-yl)-7-oxo-3,7-dihydro-2H-[1,4]oxazino[2,3,4-ij]quinoline-6-carboxylate] | 0.104 ± 0.053 | 0.065 ± 0.016 | 0.052 ± 0.026 | 2.0 | 1.3 | 7.4 ± 0.44 | 5.7 ± 0.49 | 2.3 ± 0.27 | 10.4 ± 1.13 | 6.8 ± 0.56 | > 100 | – | at least 2 fold | at least 2 fold | at least 2 fold | – | – | – |
| C[C@H]1COc2c(N3CCN(C)CC3)c(F)cc3c(=O)c(C(=O)NCc4cn(CCCCCCCC(=O)NO)nn4)cn1c23 [Compound 9c, (S)-9-Fluoro-N-((1-(8-(hydroxyamino)-8-oxooctyl)-1H-1,2,3-triazol-4-yl)methyl)-3-methyl-10-(4-methylpiperazin-1-yl)-7-oxo-3,7-dihydro-2H-[1,4]oxazino[2,3,4-ij]quinoline-6-carboxamide] | 0.038 ± 0.014 | 0.076 ± 0.022 | 0.041 ± 0.025 | 0.9 | 1.9 | 4.2 ± 0.38 | 3.6 ± 0.55 | 1.1 ± 0.23 | 8.7 ± 0.62 | 3.5 ± 0.24 | > 100 | – | – | – | – | – | – | – |
| O=C(CCCCCCC(=O)Nc1ccccc1)NO [SAHA, vorinostat, reference compound] | – | – | – | – | – | – | – | – | – | – | – | – | – | – | – | 2.9 ± 0.18 | considerable toxicity | some extent inherent toxicity |
